The results in this text go back to US9422267B2, “Fused pyrimidine compounds and use thereof” (Medivation Technologies, Inc., priority 2012, dated 2016).

Data set [1] has as its target Fer (Homo sapiens, UniProt P16591). The data set can be described thus: Caliper kinase profiling: Fer. In kind it is biochemical.
Data set [2] has as its target T1, BMX (Homo sapiens, UniProt P51813).
T1 sequence (P51813 1-675): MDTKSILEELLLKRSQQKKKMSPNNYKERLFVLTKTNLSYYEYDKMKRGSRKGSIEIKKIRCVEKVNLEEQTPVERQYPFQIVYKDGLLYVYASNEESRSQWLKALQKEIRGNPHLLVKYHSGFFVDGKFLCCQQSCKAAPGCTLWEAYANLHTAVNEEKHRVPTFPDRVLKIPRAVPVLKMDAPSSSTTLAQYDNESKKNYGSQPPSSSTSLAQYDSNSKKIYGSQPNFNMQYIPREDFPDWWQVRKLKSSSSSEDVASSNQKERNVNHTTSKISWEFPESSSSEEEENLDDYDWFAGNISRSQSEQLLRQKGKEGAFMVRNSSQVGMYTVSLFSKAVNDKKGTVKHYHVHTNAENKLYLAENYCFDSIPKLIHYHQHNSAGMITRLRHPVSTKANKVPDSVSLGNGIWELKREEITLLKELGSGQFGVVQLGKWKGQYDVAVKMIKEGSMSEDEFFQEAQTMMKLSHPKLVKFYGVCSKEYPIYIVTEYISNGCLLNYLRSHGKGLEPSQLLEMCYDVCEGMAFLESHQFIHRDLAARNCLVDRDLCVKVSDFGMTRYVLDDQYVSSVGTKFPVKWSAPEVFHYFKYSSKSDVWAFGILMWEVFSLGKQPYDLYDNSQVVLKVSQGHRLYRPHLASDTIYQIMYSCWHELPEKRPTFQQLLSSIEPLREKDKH
Description: Caliper kinase profiling: BMX. In kind it is biochemical.

The target of data set [3] is Hck (Homo sapiens, UniProt P08631). Description: Caliper kinase profiling: Hck. The data set is classed as biochemical.
Data set [4] deals with PhKg2 (Homo sapiens, UniProt P15735). The data set can be described thus: Caliper kinase profiling: PhKg2. In kind it is biochemical. To be noted: PhKg2, 1 μM; read-out: Average % Inh @ 1 μM.
The target of data set [5] is EPHB4 (Homo sapiens, UniProt P54760). The data set can be described thus: Caliper kinase profiling: EPHB4. In kind it is biochemical. The following applies: EPHB4, 1 μM; read-out: Average % Inh @ 1 μM.
Data set [6] deals with FGFR3(K650E) (Homo sapiens, UniProt P22607, K650E). The data set can be described thus: Caliper kinase profiling: FGFR3(K650E). To be noted: read-out: Average % Inh @ 1 μM. In kind it is biochemical.
Data set [7] has as its target T2, ABL1(Y253F) (Homo sapiens, UniProt P00519, Y253F).
T2 construct: purchased Caliper LifeSciences (ProfilerPro Kinase Selectivity Assay Kits)
The data set can be described thus: Caliper kinase profiling: ABL1(Y253F). The data set is classed as biochemical. The following applies: read-out: Average % Inh @ 1 μM.

The target of data set [8] is DCAMKL1 (Homo sapiens, UniProt O15075). Description: Caliper kinase profiling: DCAMKL1. In kind it is biochemical. To be noted: DCAMKL1, 1 μM; read-out: Average % Inh @ 1 μM.
The target of data set [9] is FGFR1 (Homo sapiens, UniProt P11362). Description: Caliper kinase profiling: FGFR1. The data set is classed as biochemical.
Data set [10] has as its target FYN (Homo sapiens, UniProt P06241). Description: Caliper kinase profiling: FYN. The data set is classed as biochemical.
In data set [11] the target is T3, Arg (Homo sapiens, UniProt P42684).
T3 construct: purchased Caliper LifeSciences (ProfilerPro Kinase Selectivity Assay Kits)
The data set can be described thus: Caliper kinase profiling: Arg. In kind it is biochemical.

Data set [12] has as its system ZR-75-1. The data set can be described thus: Cell Titer-Glo cell viability: ZR-75-1. In kind it is cell-based. To be noted: Homo sapiens; ZR-75-1, breast cancer; 72 h. As for the experimental part:
Compound nos. […] This panel of cell lines includes an ER− breast carcinoma, primary breast ductal carcinoma, prostate adenocarcinoma, mammary adenocarcinoma, mammary ductal carcinoma, mammary ductal carcinoma, ovary adenocarcinoma, ER+ breast carcinoma, ER-HER2+ mammary ductal carcinoma and an ER+ mammary ductal carcinoma, respectively.
(§1) This assay quantitates the ATP present in order to determine the number of viable cells in culture. Briefly, the compounds were incubated with the cells for 72 h, followed by cell lysis. The resulting luminescent signal is proportional to the amount of ATP present and, therefore, directly proportional to the number of cells present in culture.
On the technique in general: ATP-based viability assays read luminescence as a measure of living cells.

Data set [13] has as its system PANC-1. The data set can be described thus: Cell viability: pancreatic cancer cell line PANC-1. In kind it is cell-based. The following applies: Homo sapiens; PANC-1 pancreatic cancer cell line. The procedure:
as §1
Analogous studies utilizing pancreatic cancer cell lines such as ASPC-1 and PANC-1 can be performed with compounds of the invention.

In data set [14] the test system is human breast cancer MCF7 cells. Description: Efficacy in xenograft model of human breast cancer. The data set is classed as in vivo, mice. As for the experimental part:
To evaluate the efficacy of tumor growth inhibition, the compound 8b was studied using human cancer mouse models. The models are prepared by subcutaneously or orthotopically implanting mice with human cancer cells. When the tumor size of the mice develops (e.g., reaches 100 mm^3), the mice are divided into groups for treatment with compound 8b (where different groups receiving the compound 8b may be administered different amounts of the compound 8b) or are provided no compound as a control. The mice are treated (e.g., orally administered a compound of the invention) for a period of time. During the course of the study, the tumor is measured and the weight of the mice is determined. After the treatment period, the mice are sacrificed shortly (e.g. 1 or 2 hours) after the final dose. Blood and tissue are collected for biochemical analysis.
To evaluate the efficacy of tumor growth inhibition, compound 8b was studied using a human breast cancer mouse model. […]
The appropriate amount of compound 8b was sonicated in a PEG-400 solution (80% w/v in case of Example B6B; and 50% w/v in case of Example B6C) to completely dissolve the compound, followed by dropwise addition of the required amount of H2O. […] During the course of the study, the tumor was measured and the weight of the mice was determined. […]

The mark [15] stands for this setting: 10 nM, read-out: Average % Inh @ 10 nM.
The mark [16] stands for this setting: 100 nM, read-out: Average % Inh @ 100 nM.
The mark [17] stands for this setting: 1 μM, read-out: Average % Inh @ 1 μM.

Chain of FGFR1 (P11362 22-822): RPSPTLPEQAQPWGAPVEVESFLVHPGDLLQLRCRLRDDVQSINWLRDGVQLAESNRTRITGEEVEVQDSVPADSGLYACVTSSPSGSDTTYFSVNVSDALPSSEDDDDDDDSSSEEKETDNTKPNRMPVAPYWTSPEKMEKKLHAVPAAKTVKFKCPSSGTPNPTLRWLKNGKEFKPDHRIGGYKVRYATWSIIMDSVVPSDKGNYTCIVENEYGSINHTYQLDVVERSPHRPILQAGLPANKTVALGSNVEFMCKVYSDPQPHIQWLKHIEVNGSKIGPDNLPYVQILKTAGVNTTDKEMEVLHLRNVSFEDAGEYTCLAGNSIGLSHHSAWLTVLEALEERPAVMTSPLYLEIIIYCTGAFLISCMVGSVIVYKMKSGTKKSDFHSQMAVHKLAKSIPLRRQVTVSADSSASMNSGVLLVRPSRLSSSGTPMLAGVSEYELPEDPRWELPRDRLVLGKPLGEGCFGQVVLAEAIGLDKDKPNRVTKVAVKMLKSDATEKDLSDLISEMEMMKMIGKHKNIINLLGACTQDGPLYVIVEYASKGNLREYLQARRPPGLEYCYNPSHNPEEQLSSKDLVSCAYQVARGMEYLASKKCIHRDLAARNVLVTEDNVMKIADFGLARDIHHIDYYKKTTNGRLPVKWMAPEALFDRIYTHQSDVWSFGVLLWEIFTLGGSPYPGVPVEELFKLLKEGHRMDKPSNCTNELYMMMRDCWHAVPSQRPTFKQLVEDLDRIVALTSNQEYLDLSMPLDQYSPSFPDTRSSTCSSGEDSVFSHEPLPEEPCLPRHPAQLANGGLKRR
Chain of Hck (P08631 whole entry): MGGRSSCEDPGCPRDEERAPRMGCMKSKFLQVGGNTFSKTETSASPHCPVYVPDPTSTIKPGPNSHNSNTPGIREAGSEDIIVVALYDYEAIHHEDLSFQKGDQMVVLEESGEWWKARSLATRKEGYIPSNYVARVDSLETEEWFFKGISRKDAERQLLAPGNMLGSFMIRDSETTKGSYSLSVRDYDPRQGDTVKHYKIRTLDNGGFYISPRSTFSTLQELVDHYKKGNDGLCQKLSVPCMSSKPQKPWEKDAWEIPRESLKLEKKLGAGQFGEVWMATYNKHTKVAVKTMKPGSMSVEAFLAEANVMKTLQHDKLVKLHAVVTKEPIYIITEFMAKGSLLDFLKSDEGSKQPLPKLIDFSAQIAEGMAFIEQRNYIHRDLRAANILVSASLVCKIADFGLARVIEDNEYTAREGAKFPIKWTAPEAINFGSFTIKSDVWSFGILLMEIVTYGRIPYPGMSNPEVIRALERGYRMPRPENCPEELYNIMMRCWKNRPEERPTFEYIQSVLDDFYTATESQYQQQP
Chain of FYN (P06241 whole entry): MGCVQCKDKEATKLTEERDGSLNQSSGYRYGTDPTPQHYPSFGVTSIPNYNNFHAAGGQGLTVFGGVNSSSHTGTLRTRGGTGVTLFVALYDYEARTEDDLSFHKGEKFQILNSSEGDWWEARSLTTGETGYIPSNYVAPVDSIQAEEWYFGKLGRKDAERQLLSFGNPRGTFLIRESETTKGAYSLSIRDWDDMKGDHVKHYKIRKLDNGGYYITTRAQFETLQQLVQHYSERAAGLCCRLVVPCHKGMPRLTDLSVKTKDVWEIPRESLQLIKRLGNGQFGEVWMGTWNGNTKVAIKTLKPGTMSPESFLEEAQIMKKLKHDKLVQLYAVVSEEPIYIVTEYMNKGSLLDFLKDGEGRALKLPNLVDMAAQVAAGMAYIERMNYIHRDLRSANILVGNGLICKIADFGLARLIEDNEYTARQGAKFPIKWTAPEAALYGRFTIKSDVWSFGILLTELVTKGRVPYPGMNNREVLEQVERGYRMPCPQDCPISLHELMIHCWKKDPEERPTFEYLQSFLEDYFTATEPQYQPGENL
Chain of Fer (P16591 whole entry): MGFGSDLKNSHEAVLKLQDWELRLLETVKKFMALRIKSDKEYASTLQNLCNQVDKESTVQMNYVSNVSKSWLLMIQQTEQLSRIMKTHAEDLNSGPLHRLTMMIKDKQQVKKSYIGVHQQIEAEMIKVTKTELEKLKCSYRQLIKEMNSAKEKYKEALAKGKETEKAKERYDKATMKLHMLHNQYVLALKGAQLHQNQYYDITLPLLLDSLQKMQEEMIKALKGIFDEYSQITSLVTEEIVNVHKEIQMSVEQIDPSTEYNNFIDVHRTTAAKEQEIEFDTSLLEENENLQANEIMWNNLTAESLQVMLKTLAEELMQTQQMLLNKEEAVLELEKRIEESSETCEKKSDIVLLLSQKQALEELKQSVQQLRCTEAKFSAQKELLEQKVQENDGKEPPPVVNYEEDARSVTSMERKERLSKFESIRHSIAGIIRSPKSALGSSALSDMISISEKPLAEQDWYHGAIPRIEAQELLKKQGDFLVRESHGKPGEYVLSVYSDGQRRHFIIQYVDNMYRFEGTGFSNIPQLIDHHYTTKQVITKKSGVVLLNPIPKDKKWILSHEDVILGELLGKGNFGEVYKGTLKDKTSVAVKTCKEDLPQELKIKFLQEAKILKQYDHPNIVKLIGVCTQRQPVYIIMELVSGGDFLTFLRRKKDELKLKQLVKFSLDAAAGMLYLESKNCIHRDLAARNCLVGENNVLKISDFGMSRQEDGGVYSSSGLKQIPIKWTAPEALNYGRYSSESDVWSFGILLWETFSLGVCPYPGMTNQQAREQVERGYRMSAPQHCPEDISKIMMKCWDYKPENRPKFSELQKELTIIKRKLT
T3 sequence (P42684 whole entry): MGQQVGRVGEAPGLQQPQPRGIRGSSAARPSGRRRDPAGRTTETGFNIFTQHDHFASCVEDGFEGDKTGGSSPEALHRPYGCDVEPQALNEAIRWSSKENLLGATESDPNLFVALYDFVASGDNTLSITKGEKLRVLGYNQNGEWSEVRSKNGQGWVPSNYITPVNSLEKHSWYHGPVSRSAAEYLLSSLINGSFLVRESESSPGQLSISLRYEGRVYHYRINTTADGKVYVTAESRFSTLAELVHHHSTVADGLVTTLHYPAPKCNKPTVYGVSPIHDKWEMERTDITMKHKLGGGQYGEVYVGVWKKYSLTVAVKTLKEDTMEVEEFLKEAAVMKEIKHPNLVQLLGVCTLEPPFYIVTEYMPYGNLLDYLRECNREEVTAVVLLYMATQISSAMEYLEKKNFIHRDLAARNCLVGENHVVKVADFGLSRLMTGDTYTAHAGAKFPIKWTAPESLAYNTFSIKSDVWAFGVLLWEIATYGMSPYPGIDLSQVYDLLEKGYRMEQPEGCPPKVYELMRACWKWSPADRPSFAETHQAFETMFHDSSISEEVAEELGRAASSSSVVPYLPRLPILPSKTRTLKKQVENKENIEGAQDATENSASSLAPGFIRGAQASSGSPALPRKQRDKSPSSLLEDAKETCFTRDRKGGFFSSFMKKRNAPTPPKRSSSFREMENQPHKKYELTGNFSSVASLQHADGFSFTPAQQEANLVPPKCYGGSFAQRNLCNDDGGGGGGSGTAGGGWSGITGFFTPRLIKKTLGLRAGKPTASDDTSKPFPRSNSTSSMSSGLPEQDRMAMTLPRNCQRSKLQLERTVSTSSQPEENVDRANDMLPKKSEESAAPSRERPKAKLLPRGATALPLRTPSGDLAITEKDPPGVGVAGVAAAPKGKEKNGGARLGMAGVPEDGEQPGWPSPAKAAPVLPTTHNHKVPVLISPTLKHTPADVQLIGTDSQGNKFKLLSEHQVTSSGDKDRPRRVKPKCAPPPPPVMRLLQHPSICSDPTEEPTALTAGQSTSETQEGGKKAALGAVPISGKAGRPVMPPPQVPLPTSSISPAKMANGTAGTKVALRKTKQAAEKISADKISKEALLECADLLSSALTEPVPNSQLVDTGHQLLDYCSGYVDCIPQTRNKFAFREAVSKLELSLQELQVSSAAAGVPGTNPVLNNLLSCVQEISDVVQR
Chain of EPHB4 (P54760 16-987): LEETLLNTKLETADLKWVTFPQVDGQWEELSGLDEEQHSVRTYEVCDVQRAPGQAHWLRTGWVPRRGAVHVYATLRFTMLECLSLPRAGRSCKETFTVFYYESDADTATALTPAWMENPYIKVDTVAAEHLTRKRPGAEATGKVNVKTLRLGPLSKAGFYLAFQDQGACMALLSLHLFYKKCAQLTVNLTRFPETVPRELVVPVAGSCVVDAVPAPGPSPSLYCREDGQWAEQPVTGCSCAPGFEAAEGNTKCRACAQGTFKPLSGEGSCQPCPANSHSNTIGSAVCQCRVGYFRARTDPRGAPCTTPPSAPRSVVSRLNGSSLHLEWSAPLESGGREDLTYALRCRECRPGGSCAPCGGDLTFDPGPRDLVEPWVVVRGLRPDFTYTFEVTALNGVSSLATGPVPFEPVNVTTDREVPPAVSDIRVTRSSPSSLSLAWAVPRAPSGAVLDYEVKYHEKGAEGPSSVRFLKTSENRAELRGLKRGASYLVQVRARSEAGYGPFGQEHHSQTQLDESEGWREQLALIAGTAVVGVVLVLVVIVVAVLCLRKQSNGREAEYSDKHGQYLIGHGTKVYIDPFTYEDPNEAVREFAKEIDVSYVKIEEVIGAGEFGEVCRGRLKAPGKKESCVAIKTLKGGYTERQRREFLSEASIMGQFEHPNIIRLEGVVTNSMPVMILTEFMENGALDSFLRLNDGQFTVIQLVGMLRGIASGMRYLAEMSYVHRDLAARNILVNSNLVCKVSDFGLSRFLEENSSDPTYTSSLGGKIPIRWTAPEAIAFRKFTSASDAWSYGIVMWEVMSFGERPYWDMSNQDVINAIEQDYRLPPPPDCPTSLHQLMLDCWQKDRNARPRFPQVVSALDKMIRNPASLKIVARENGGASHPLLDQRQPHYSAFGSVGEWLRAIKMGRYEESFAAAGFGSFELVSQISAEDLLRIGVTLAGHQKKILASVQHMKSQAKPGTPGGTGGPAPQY

Regarding `O=C(Nc1ccc(F)nc1)C1CCCN1c1nc2c(c(Nc3cc(C4CC4)[nH]n3)n1)CCC2` (single isomer, unassigned) [Compound 2b, 1-(4-(5-cyclopropyl-1H-pyrazol-3-ylamino)-6,7-dihydro-5H-cyclopenta[d]pyrimidin-2-yl)-N-(6-fluoropyridin-3-yl)pyrrolidine-2-carboxamide], the inhibition at 0.01 µM in [1] (setting [15]) is below 39%; in [2] (setting [15]) it was below 39%; in data set [3] (setting [15]), below 39%; in data set [9] (FGFR1, 10 nM, read-out: Average % Inh @ 10 nM) it was below 39%; in [10] (setting [15]), below 39%; in data set [11] (setting [15]), below 39%. Also, the inhibition at 0.1 µM was above 60% in data set [1] (setting [16]); below 39% in data set [2] (setting [16]); 40 to 59% in data set [3] (setting [16]); below 39% in [9] (FGFR1, 100 nM, read-out: Average % Inh @ 100 nM); above 60% in data set [10] (setting [16]); below 39% in [11] (setting [16]). Further, the inhibition at 1 µM in data set [1] (setting [17]) is above 60%; in data set [2] (setting [17]) it was 40 to 59%; in [3] (setting [17]), above 60%; in [4], 40 to 59%; in data set [5], 40 to 59%; in [6] it was above 60%. In addition, the inhibition at 1 µM is 40 to 59% in data set [7]; 40 to 59% in data set [8]; above 60% in data set [9] (FGFR1, 1 μM, read-out: Average % Inh @ 1 μM); above 60% in data set [10] (setting [17]); above 60% in data set [11] (setting [17]).

As usually defined, the IC50 is the concentration needed to halve the response being measured. Low readings indicate inhibition by little substance, high ones a need for much substance. For `CC(C)c1cc(Nc2nc(N3CCCC3C(=O)Nc3ccc(F)nc3)nc3c2CCC3)n[nH]1` (single isomer, unassigned) [Compound 8b], the half-maximal inhibitory concentration (IC50) was below 100 µM in data set [12] and 3.66 µM in [13]. For the same compound, the tumor burden entry in data set [14] (MCF7 breast cancer model, nude mice, 10 and 15 mg/kg/po, various schedules (FIG. 2)) was “dose-dependently and significantly reduced tumor burden”. Moreover, the “body weights of the mice” value in [14] (MCF7 xenograft model (FIG. 4)) is listed as “dose-dependently reduced body weights”.
